From patent US6300501A, “Histidine-(N-benzyl glycinamide) inhibitors of protein farnesyl transferase” (Warner-Lambert Company, priority 1998, dated 2001) come the findings set out here.

Experiment [1] concerns ras farnesylation in ras-transformed cells. The experiment is described as follows: Gel shift assay. In kind it is cell-based. Conditions: ras-transformed cells, 18-hour incubation; read-out: Gel Shift (μM) MED (minimal effective dose to observe inhibition of ras farnesylation). On the procedure: Twenty-four hours after planting 2×10^6 ras-transformed cells per treatment condition, the farnesylation inhibitor is added at varying concentrations. Following an 18-hour incubation period, cells are lysed in phosphate-buffered saline containing 1% Triton X-100, 0.5% sodium deoxycholate, and 0.1% SDS (sodium dodecyl sulfate), pH 7.4 in the presence of several protease inhibitors (PMSF (phenylmethylsulfonylfluoride), antipain, leupeptin, pepstatin A, and aprotinin all at 1 μg/mL). Ras protein is immunoprecipitated from the supernatants by the addition of 3 μg v-H-ras Ab-2 (Y13-259 antibody from Oncogene Science). After overnight immunoprecipitation, 30 μL of a 50% protein G-Sepharose slurry (Pharmacia) is added followed by 45-minute incubation. Pellets are resuspended in 2× tris-glycine loading buffer (Novex) containing 5% β-mercaptoethanol and then denatured by 5 minutes boiling prior to electrophoresis on 14% Tris-glycine SDS gels. Using Western transfer techniques, proteins are transferred to nitrocellulose membranes followed by blocking in blocking buffer. Upon overnight incubation with primary antibody (pan-ras Ab-2 from Oncogene Science), an antimouse HRP (horse radish peroxidase) conjugate secondary antibody (Amersham) is employed for detection of the ras protein. Blots are developed using ECL(enhanced chemiluminescence) techniques (Amersham).

Experiment [2] relates to H61 cells: NIH transformed 3T3 H-ras cells. The experiment in a line: Clonogenic assay (6 well plates, soft agar). In kind it is cell-based. To be noted: colonies counted after Day 13, read-out: Clonogenic Assay IC50. On the procedure:
Clonoaenic Assay (6 well lates)
Sometime previous to setting up an actual test:
1. Make up 1.5% Bacto Agar in Milli-Q water and autoclave.
2. Make up 500 mL 2× DMEM-HG without phenol red by combining the following:
1 bottle DMEM base powder (Sigma D-5030)
Adjust pH to 7.1 with HCL; filter sterilize.
1. Set up makeshift water bath (beaker of water with thermometer, on hot plate) in the hood. Keep water temperature between 37° C. to 43° C.
2. […] 1.5% Bacto Agar for approximately 2 minutes on high, or until completely melted. Then let it cool somewhat before using it. (You can keep it from resolidifying by setting the bottle on the hot plate.) […]
3. Bottom Layer (0.6% agar) Top Layer (0.3% agar)
20% calf serum 20% calf serum
40% Bacto Agar (1.5%) 20% Bacto Agar (1.5%)
Depending on the volume of each layer needed, use either 50 mL conical tubes or 200 mL turnip tubes which can be floated in the "water bath".
4. Add 1 mL of bottom layer agar/medium to each well: deliver 1 mL warm agar/medium to a well; then using the tip of the pipet, spread the agar/medium around to completely cover the bottom. Repeat with next well.
5. Allow the plates to set at room temperature for about 5 minutes until the bottom layer solidifies.
6. Label sterile Falcon 2054 (12×75 mm) tubes and add appropriate volume of drug solutions into them.
7. Aliquot 4 AL of DMSO or drug solution per 1 mL of agar/medium to appropriate tubes; then add the agar/medium/cells to each tube. Always add 1 mL more than will actually be needed. Mix up and down in the pipet (gently); then deliver 1 mL to the center of each well. The upper layer is less viscous, so it will generally spread out over the bottom layer unaided. If necessary, rotate the plane of the plate gently to spread the top layer evenly over the bottom layer.
8. Let plates set for 5 or 10 minutes at room temperature to solidify, then put into 5% CO2, 37° C. incubator.
9. On Day 13, add 0.5 mL of INT (tetrazolium 1 mg/mL in Milli-Q H2 O, filter sterilized) and return plates to incubator.

Experiment [3] has as its target T1, SF9 affinity purified rat farnesyl protein transferase (Rattus norvegicus, UniProt Q02293+Q04631).
T1 construct: made in house; host or cells: Sf9 insect cells (baculovirus system inferred from b7)
The experiment is described as follows: PFT inhibitory activity (radiolabeled farnesyl pyrophosphate, streptavidin bead assay). The experiment is classed as biochemical. Here is the method:
The protein:farnesyl transferase (PFT) or farnesyl protein transferase (FPT) inhibitory activity of compounds of the present invention were assayed in HEPES buffer (pH 7.4) containing 5 mM potassium phosphate and 20 μM ZnCl2. The solution also contained 5 mM DTT (dithiothreitol), 5 mM MgCl2, and 0.1% PEG 8000. Assays were performed in 96 well plates (Wallec) and employed solutions composed of varying concentrations of a compound of the present invention in 100% DMSO (dimethylsulfoxide). Upon addition of both substrates, radiolabeled farnesyl pyrophosphate ([1^3 H], specific activity 15-30 Ci/mmol, final concentration 134 nM) and (biotinyl)-Ahe-Thr-Lys-Cys-Val-Ile-Met ([3aS[3a alpha, 4 beta, 6a alpha]-hexahydro-2-oxo-1H-thieno[3,4-d]imidazole-5-pentanoic acid]-[7-aminoheptanoic acid]-Thr-Lys-Cys-Val-Ile-Met) (Ahe is 7-aminoheptanoic acid, Thr is threonine, Lys is lysine, Cys is cysteine, Val is valine, Ile is isoleucine and Met is methionine) (final concentration 0.2 μM), the enzyme reaction was started by addition of SF9 affinity purified rat farnesyl protein transferase. After incubation at 30° C. for 30 minutes, the reaction was terminated by diluting the reaction 2.5-fold with a stop buffer containing 1.5 M magnesium acetate, 0.2 M H3 PO4, 0.5% BSA (bovine serum albumin), and strepavidin beads (Amersham) at a concentration of 1.3 mg/mL. After allowing the plate to settle for 30 minutes at room temperature, radioactivity was quantitated on a microBeta counter (Model 1450, Wallec). The assay was also carried out without 5 mM potassium phosphate.

Where [4] appears, read: HEPES buffer pH 7.4, without 5 mM potassium phosphate, read-out: IC50 (μM) Hepes.
The mark [5] stands for this setting: HEPES buffer pH 7.4 containing 5 mM potassium phosphate, read-out: IC50 (μM) 5 mM K3 PO4 -2.

Where two headings read alike, the source gives them in different places.

T1 sequence (Q02293 whole entry, one chain of several): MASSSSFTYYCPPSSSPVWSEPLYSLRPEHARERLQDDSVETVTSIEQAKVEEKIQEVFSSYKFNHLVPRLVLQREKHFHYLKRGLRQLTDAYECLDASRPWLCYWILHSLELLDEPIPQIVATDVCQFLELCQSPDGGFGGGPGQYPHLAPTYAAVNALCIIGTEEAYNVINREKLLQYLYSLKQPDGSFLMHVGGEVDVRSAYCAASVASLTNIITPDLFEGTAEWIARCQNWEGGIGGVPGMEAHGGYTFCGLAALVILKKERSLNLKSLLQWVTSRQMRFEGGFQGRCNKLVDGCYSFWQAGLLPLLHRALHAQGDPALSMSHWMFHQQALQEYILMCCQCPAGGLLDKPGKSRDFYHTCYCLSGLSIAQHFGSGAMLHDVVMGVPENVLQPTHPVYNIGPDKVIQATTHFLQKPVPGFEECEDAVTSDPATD

On to `O=C(CN(Cc1ccc(OCc2ccccc2)cc1)C(=O)[C@H](Cc1cnc[nH]1)NC(=O)OCc1ccccc1)NCC(O)c1ccccc1` (stereo partly drawn) [Example 14, (S)-[1-{(4-Benzyloxy-benzyl)-[(2-hydroxy-2-phenyl-ethylcarbamoyl)-methyl]-carbamoyl}-2-(3H-imidazole-4-yl)-ethyl]-carbamic Acid Benzyl Ester], for which, in experiment [1], the minimal effective concentration worked out at 0.05 µM. The IC50 – broadly, the concentration that inhibits the measured activity by half – in experiment [2] (312 h) was > 1000 nM; in experiment [3] (setting [4]), 1.6 µM; in experiment [3] (setting [5]), 0.066 µM.

With `CCC(CNC(=O)CN(Cc1ccc(OCc2ccccc2)cc1)C(=O)[C@H](Cc1c[nH]cn1)NC(=O)OCc1ccccc1)c1ccccc1` (stereo partly drawn) [Example 16, (S)-[1-{(4-Benzyloxy-benzyl)-[(2-phenyl-butylcarbamoyl)-methyl]-carbamoyl}-2-(1H-imidazole-4-yl)-ethyl]-carbamic Acid Benzyl Ester], the minimal effective concentration in experiment [1] fell in the range of 0.01 to 0.05 µM. The IC50 came to 400 nM in experiment [2] (312 h), 0.29 µM in experiment [3] (setting [4]) and 0.007 µM in experiment [3] (setting [5]).

On to `CC(CNC(=O)CN(Cc1ccc(OCc2ccccc2)cc1)C(=O)[C@H](Cc1c[nH]cn1)NC(=O)CCc1ccccc1)c1ccccc1` (stereo partly drawn) [Example 17, (S)-N-(4-Benzyloxy-benzyl)-3-(1H-imidazole-4-yl)-2-(3-phenyl-proponylamino)-N-[(2-phenyl-propylcarbamoyl)-methyl]-propionamide], for which the minimal effective concentration in experiment [1] is recorded as 0.2 µM. For the same compound, the IC50 is > 1000 nM in experiment [2], 2.8 µM in experiment [3] (setting [4]) and 0.086 µM in experiment [3] (setting [5]).

Turning to `CC(CNC(=O)CN(Cc1ccc(F)cc1)C(=O)[C@H](Cc1c[nH]cn1)NC(=O)OCc1ccccc1)c1ccccc1` (stereo partly drawn) [Example 18, (S)-[1-{(4-Fluoro-benzyl)-[(2-phenyl-propylcarbamoyl)-methyl]-carbamoyl}-2-(1H-imidazole-4-yl)-ethyl]-carbamic Acid Benzyl Ester], the minimal effective concentration in experiment [1] came out at 0.2 µM. For the same compound, the values for the IC50 in experiment [2] (312 h), in experiment [3] (setting [4]) and in experiment [3] (setting [5]) were > 1000 nM, 2.8 µM and 0.061 µM, respectively.

As to `Cc1ccc(CN(CC(=O)NCC(C)c2ccccc2)C(=O)[C@H](Cc2c[nH]cn2)NC(=O)OCc2ccccc2)cc1` (stereo partly drawn) [Example 19, (S)-(2-(1H-Imidazole-4-yl)-1-{(4-methyl-benzyl)-[(2-phenyl-propylcarbamoyl)-methyl]-carbamoyl}-ethyl)-carbamic Acid Benzyl Ester], the minimal effective concentration in experiment [1] was 0.05 µM. For the same compound, the IC50 in experiment [2] (312 h) is 660 nM; in experiment [3] (setting [4]) it was 1.26 µM; in experiment [3] (setting [5]) it was 0.015 µM.

On to `COc1ccc(CN(CC(=O)NCC(C)c2ccccc2)C(=O)[C@H](Cc2c[nH]cn2)NC(=O)OCc2ccccc2)cc1` (stereo partly drawn) [Example 20, (S)-(2-(1H-Imidazole-4-yl)-1-{(4-methoxy-benzyl)-[(2-phenyl-propylcarbamoyl)-methyl]-carbamoyl}-ethyl)-carbamic Acid Benzyl Ester], for which the minimal effective concentration in experiment [1] is 0.05 µM. In addition, the IC50 in experiment [2] (312 h) came to 460 nM; in experiment [3] (setting [4]), 1.5 µM; in experiment [3] (setting [5]) it was 0.017 µM.

Turning to `CC(CNC(=O)CN(Cc1ccc(OCc2ccccc2)cc1)C(=O)[C@H](Cc1cnc[nH]1)NC(=O)OCc1ccccc1)c1ccccc1N` (stereo partly shown) [Example 21], the minimal effective concentration in experiment [1] is listed as 0.05 µM. The IC50 in experiment [2] was 300 nM; in experiment [3] (setting [4]), 0.16 µM; in experiment [3] (setting [5]), 0.008 µM.

In the case of `CC(C)(CNC(=O)CN(Cc1ccc(F)cc1)C(=O)[C@H](Cc1c[nH]cn1)NC(=O)OCc1ccccc1)c1ccccc1` [Example 22, (S)-[1-{(4-Fluoro-benzyl)-[(2-methyl-2-phenyl-propylcarbamoyl)-methyl]-carbamoyl}-2-(1H-imidazole-4-yl)-ethyl]-carbamic Acid Benzyl Ester], the minimal effective concentration in experiment [1] was determined as 0.2 µM. Also, the IC50 is > 1000 nM in experiment [2] (312 h), 1.2 µM in experiment [3] (setting [4]) and 0.016 µM in experiment [3] (setting [5]).

For the compound `CC(CNC(=O)CN(Cc1ccccc1)C(=O)[C@H](Cc1c[nH]cn1)NC(=O)OCc1ccccc1)c1ccccc1` (stereo partly drawn) [Example 23, (S)-[1-{Benzyl-[(2-phenyl-propylcarbamoyl)-methyl]-carbamoyl}-2-(1H-imidazole-4-yl)-ethyl]-carbamic Acid Benzyl Ester], the minimal effective concentration in experiment [1] is 0.2 µM. Further, the IC50 in experiment [2] (312 h) was > 1000 nM; in experiment [3] (setting [4]) it was 1.6 µM; in experiment [3] (setting [5]), 0.022 µM.

Consider `O=C(CN(Cc1ccc(OCc2ccccc2)cc1)C(=O)[C@H](Cc1c[nH]cn1)NC(=O)OCc1ccccc1)NCC(c1ccccc1)c1ccccc1Cl` (stereo partly drawn) [Example 24, (S)-[1-((4-Benzyloxy-benzyl)-{[2-(2-chloro-phenyl)-2-phenyl-ethylcarbamoyl]-methyl}-carbamoyl)-2-(1H-imidazole-4-yl)-ethyl]-carbamic Acid Benzyl Ester], for which, in experiment [1], the minimal effective concentration worked out at 0.2 µM. The IC50 in experiment [2] (312 h) was 820 nM; in experiment [3] (setting [4]), 0.2 µM; in experiment [3] (setting [5]), 0.014 µM.

Consider `CCC(CC)(CNC(=O)CN(Cc1ccc(OCc2ccccc2)cc1)C(=O)[C@H](Cc1cnc[nH]1)NC(=O)OCc1ccccc1)c1ccccc1` [Example 25, (S)-[1-{(4-Benzyloxy-benzyl)-[(2-ethyl-2-phenyl-butylcarbamoyl)-methyl]-carbamoyl}-2-(3H-imidazole-4-yl)-ethyl]-carbamic Acid Benzyl Ester], for which the minimal effective concentration in experiment [1] worked out at 0.2 µM. Besides, the values for the IC50 in experiment [2] (312 h), in experiment [3] (setting [4]) and in experiment [3] (setting [5]) were 890 nM, 0.93 µM and 0.032 µM, respectively.

`CCC(CNC(=O)CN(Cc1ccc(OCc2ccccc2)cc1)C(=O)[C@H](Cc1c[nH]cn1)NC(=O)NCc1ccccc1)c1ccccc1` (stereo partly drawn) [Example 27, (S)-N-(4-Benzyloxy-benzyl)-2-(3-benzyl-ureido)-3-(1H-imidazole-4-yl)-N-[(2-phenyl-butylcarbamoyl)-methyl]-propionamide]: the minimal effective concentration in experiment [1] was found to be 0.2 µM. Also, the IC50 in experiment [2] (312 h) was > 1000 nM; in experiment [3] (setting [4]) it was 0.12 µM; in experiment [3] (setting [5]), 0.014 µM.

Regarding `CC(CNC(=O)CN(Cc1ccccc1Cl)C(=O)[C@H](Cc1c[nH]cn1)NC(=O)OCc1ccccc1)c1ccccc1` (stereo partly drawn) [Example 28, (S)-[1-{(2-Chloro-benzyl)-[(2-phenyl-propylcarbamoyl)-methyl]-carbamoyl}-2-(1H-imidazole-4-yl)-ethyl]-carbamic Acid Benzyl Ester], in experiment [1], the minimal effective concentration is 0.2 µM. Also, the figures for the IC50 in experiment [2] (312 h), in experiment [3] (setting [4]) and in experiment [3] (setting [5]) were 600 nM, 2.6 µM and 0.043 µM, respectively.
